Reference: PubChem BioAssay (NCI)
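Cells were grown in 96-well plates and exposed to each compound for 48 hours at five concentrations; endpoints were interpolated linearly between bracketing concentrations, or set to the highest concentration if not reached. GI50 marks 50% less growth. TGI is the concentration that stops growth completely.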

Columns and labels:
Test in all cases: NCI-60 cell line screen, 48 h
[1] = tested on: 786-0 renal
[2] = tested on: A498 renal
[3] = tested on: A549 NSCLC
[4] = tested on: ACHN renal
[5] = tested on: BT-549 breast
[6] = tested on: CAKI-1 renal
[7] = tested on: CCRF-CEM leukemia
[8] = tested on: COLO 205 colon
[9] = tested on: DU-145 prostate
[10] = tested on: EKVX NSCLC
[11] = tested on: HCC-2998 colon
[12] = tested on: HCT-116 colon
[13] = tested on: HCT-15 colon
[14] = tested on: HL-60(TB) leukemia
[15] = tested on: HOP-62 NSCLC
[16] = tested on: HOP-92 NSCLC
[17] = tested on: HS 578T breast
[18] = tested on: HT29 colon
[19] = tested on: IGROV1 ovarian
[20] = tested on: K-562 leukemia
[21] = tested on: KM12 colon
[22] = tested on: LOX IMVI melanoma
[23] = tested on: M14 melanoma
[24] = tested on: MALME-3M melanoma
[25] = tested on: MCF7 breast
[26] = tested on: MDA-MB-231 breast
[27] = tested on: MDA-MB-435
[28] = tested on: MDA-MB-468 breast
[29] = tested on: MOLT-4 leukemia
[30] = tested on: NCI-H226 lung
[31] = tested on: NCI-H23 lung
[32] = tested on: NCI-H460 lung
[33] = tested on: NCI-H522 lung
[34] = tested on: NCI/ADR-RES ovarian
[35] = tested on: OVCAR-3 ovarian
[36] = tested on: OVCAR-4 ovarian
[37] = tested on: OVCAR-5 ovarian
[38] = tested on: OVCAR-8 ovarian
[39] = tested on: PC-3 prostate
[40] = tested on: RPMI-8226 leukemia
[41] = tested on: RXF 393 renal
[42] = tested on: SF-268 CNS
[43] = tested on: SF-295 CNS
[44] = tested on: SF-539 CNS
[45] = tested on: SK-MEL-2 melanoma
[46] = tested on: SK-MEL-28 melanoma
[47] = tested on: SK-MEL-5 melanoma
[48] = tested on: SK-OV-3 ovarian
[49] = tested on: SN12C renal
[50] = tested on: SNB-19 CNS
[51] = tested on: SNB-75 CNS
[52] = tested on: SW-620 colon
[53] = tested on: T-47D breast
[54] = tested on: TK-10 renal
[55] = tested on: U251 CNS
[56] = tested on: UACC-257 melanoma
[57] = tested on: UACC-62 melanoma
[58] = tested on: UO-31 renal

Question: How did the GI50 [1] turn out when `Cc1ccc2nc(-c3ccc(-c4nnc(SCC(=O)Nc5ccc(Cl)cc5)o4)cc3)[nH]c2c1` was run?
Answer: Its GI50 is 3.05 µM.

Question: What about the TGI [1] of the same molecule?
Answer: Its TGI is 10.7 µM.

Question: What about the GI50 [2] of the same molecule?
Answer: The GI50 was 16.3 µM.

Question: And the TGI [2]?
Answer: The TGI was 31.4 µM.

Question: What about the GI50 [3] of the same molecule?
Answer: The GI50 was 3.09 µM.

Question: What about the TGI [3] of the same molecule?
Answer: The TGI was 12.5 µM.

Question: And the GI50 [4]?
Answer: Its GI50 is 4 µM.

Question: What about the TGI [4] of the same molecule?
Answer: The TGI was 15.3 µM.

Question: What about the GI50 [5] of the same molecule?
Answer: The GI50 was 16.4 µM.

Question: What about the TGI [5] of the same molecule?
Answer: Its TGI is 32.4 µM.

Question: And the GI50 [6]?
Answer: Its GI50 is 3.59 µM.

Question: What about the TGI [6] of the same molecule?
Answer: The TGI was 15.9 µM.

Question: And the GI50 [7]?
Answer: The GI50 was 5.91 µM.

Question: And the TGI [7]?
Answer: The TGI was > 100 µM.

Question: What about the GI50 [8] of the same molecule?
Answer: Its GI50 is 9.86 µM.

Question: And the TGI [8]?
Answer: The TGI was 30.8 µM.

Question: What about the GI50 [9] of the same molecule?
Answer: Its GI50 is 7.92 µM.

Question: What about the TGI [9] of the same molecule?
Answer: Its TGI is 47.7 µM.

Question: What about the GI50 [10] of the same molecule?
Answer: The GI50 was 6.56 µM.

Question: And the TGI [10]?
Answer: Its TGI is 21.5 µM.

Question: And the GI50 [11]?
Answer: The GI50 was 10.6 µM.

Question: And the TGI [11]?
Answer: The TGI was 23.7 µM.

Question: And the GI50 [12]?
Answer: Its GI50 is 3.01 µM.

Question: What about the TGI [12] of the same molecule?
Answer: Its TGI is 15.2 µM.

Question: And the GI50 [13]?
Answer: Its GI50 is 7.87 µM.

Question: What about the TGI [13] of the same molecule?
Answer: The TGI was 21.2 µM.

Question: And the GI50 [14]?
Answer: The GI50 was 18.5 µM.

Question: And the TGI [14]?
Answer: Its TGI is > 100 µM.

Question: And the GI50 [15]?
Answer: Its GI50 is 5.43 µM.

Question: And the TGI [15]?
Answer: Its TGI is 23.5 µM.

Question: What about the GI50 [16] of the same molecule?
Answer: The GI50 was 5.99 µM.

Question: And the TGI [16]?
Answer: The TGI was 24.4 µM.

Question: What about the GI50 [17] of the same molecule?
Answer: The GI50 was 10.2 µM.

Question: And the TGI [17]?
Answer: The TGI was 37.3 µM.

Question: What about the GI50 [18] of the same molecule?
Answer: Its GI50 is 4.73 µM.

Question: What about the TGI [18] of the same molecule?
Answer: The TGI was 19.3 µM.

Question: And the GI50 [19]?
Answer: Its GI50 is 5.9 µM.

Question: And the TGI [19]?
Answer: The TGI was 19 µM.

Question: What about the GI50 [20] of the same molecule?
Answer: Its GI50 is 3.88 µM.

Question: And the TGI [20]?
Answer: The TGI was > 100 µM.

Question: And the GI50 [21]?
Answer: The GI50 was 13.3 µM.

Question: What about the TGI [21] of the same molecule?
Answer: The TGI was 39 µM.

Question: What about the GI50 [22] of the same molecule?
Answer: The GI50 was 2170 nM.

Question: And the TGI [22]?
Answer: The TGI was 5.64 µM.

Question: And the GI50 [23]?
Answer: The GI50 was 5.75 µM.

Question: And the TGI [23]?
Answer: Its TGI is 25.4 µM.

Question: And the GI50 [24]?
Answer: Its GI50 is 10.4 µM.

Question: What about the TGI [24] of the same molecule?
Answer: Its TGI is 22.2 µM.

Question: What about the GI50 [25] of the same molecule?
Answer: Its GI50 is 4 µM.

Question: What about the TGI [25] of the same molecule?
Answer: The TGI was 16.7 µM.

Question: What about the GI50 [26] of the same molecule?
Answer: Its GI50 is 4.37 µM.

Question: And the TGI [26]?
Answer: Its TGI is 16 µM.

Question: And the GI50 [27]?
Answer: Its GI50 is 6.5 µM.

Question: And the TGI [27]?
Answer: Its TGI is 20.2 µM.

Question: What about the GI50 [28] of the same molecule?
Answer: Its GI50 is 4.99 µM.

Question: And the TGI [28]?
Answer: Its TGI is 17.6 µM.

Question: What about the GI50 [29] of the same molecule?
Answer: The GI50 was 7.02 µM.

Question: And the TGI [29]?
Answer: Its TGI is 75 µM.

Question: What about the GI50 [30] of the same molecule?
Answer: The GI50 was 2960 nM.

Question: And the TGI [30]?
Answer: The TGI was 9.92 µM.

Question: And the GI50 [31]?
Answer: The GI50 was 4.37 µM.

Question: What about the TGI [31] of the same molecule?
Answer: Its TGI is 16.6 µM.

Question: And the GI50 [32]?
Answer: The GI50 was 3.67 µM.

Question: And the TGI [32]?
Answer: Its TGI is 15.8 µM.

Question: What about the GI50 [33] of the same molecule?
Answer: Its GI50 is 10.2 µM.

Question: What about the TGI [33] of the same molecule?
Answer: Its TGI is 24.9 µM.

Question: What about the GI50 [34] of the same molecule?
Answer: The GI50 was 4.13 µM.

Question: And the TGI [34]?
Answer: The TGI was 14.6 µM.

Question: What about the GI50 [35] of the same molecule?
Answer: The GI50 was 7.37 µM.

Question: And the TGI [35]?
Answer: The TGI was 22.4 µM.

Question: What about the GI50 [36] of the same molecule?
Answer: The GI50 was 8.99 µM.

Question: And the TGI [36]?
Answer: The TGI was 28.7 µM.

Question: And the GI50 [37]?
Answer: Its GI50 is 15.4 µM.

Question: And the TGI [37]?
Answer: Its TGI is 38.3 µM.

Question: What about the GI50 [38] of the same molecule?
Answer: The GI50 was 4.84 µM.

Question: And the TGI [38]?
Answer: Its TGI is 16.9 µM.

Question: And the GI50 [39]?
Answer: Its GI50 is 3.73 µM.

Question: What about the TGI [39] of the same molecule?
Answer: Its TGI is 20.5 µM.

Question: And the GI50 [40]?
Answer: Its GI50 is 9.08 µM.

Question: And the TGI [40]?
Answer: Its TGI is > 100 µM.

Question: What about the GI50 [41] of the same molecule?
Answer: The GI50 was 4.41 µM.

Question: What about the TGI [41] of the same molecule?
Answer: The TGI was 16.5 µM.

Question: And the GI50 [42]?
Answer: Its GI50 is 15.7 µM.

Question: And the TGI [42]?
Answer: The TGI was 40.3 µM.

Question: And the GI50 [43]?
Answer: The GI50 was 3.25 µM.

Question: And the TGI [43]?
Answer: Its TGI is 12.4 µM.

Question: And the GI50 [44]?
Answer: Its GI50 is 10.9 µM.

Question: And the TGI [44]?
Answer: The TGI was 23.1 µM.

Question: What about the GI50 [45] of the same molecule?
Answer: Its GI50 is 15.5 µM.

Question: What about the TGI [45] of the same molecule?
Answer: The TGI was 33.4 µM.

Question: And the GI50 [46]?
Answer: Its GI50 is 7.41 µM.

Question: What about the TGI [46] of the same molecule?
Answer: The TGI was 20.2 µM.

Question: And the GI50 [47]?
Answer: The GI50 was 12.3 µM.

Question: What about the TGI [47] of the same molecule?
Answer: The TGI was 26.4 µM.

Question: And the GI50 [48]?
Answer: The GI50 was 7.48 µM.

Question: And the TGI [48]?
Answer: Its TGI is 25.4 µM.

Question: And the GI50 [49]?
Answer: Its GI50 is 4.21 µM.

Question: And the TGI [49]?
Answer: The TGI was 15.8 µM.

Question: And the GI50 [50]?
Answer: The GI50 was 6.93 µM.

Question: What about the TGI [50] of the same molecule?
Answer: Its TGI is 23.8 µM.

Question: What about the GI50 [51] of the same molecule?
Answer: The GI50 was 10.5 µM.

Question: And the TGI [51]?
Answer: The TGI was 23.9 µM.

Question: What about the GI50 [52] of the same molecule?
Answer: The GI50 was 3.73 µM.

Question: What about the TGI [52] of the same molecule?
Answer: The TGI was 19.5 µM.

Question: What about the GI50 [53] of the same molecule?
Answer: The GI50 was 18.1 µM.

Question: What about the TGI [53] of the same molecule?
Answer: The TGI was 69.7 µM.

Question: What about the GI50 [54] of the same molecule?
Answer: Its GI50 is 6.8 µM.

Question: And the TGI [54]?
Answer: The TGI was 20.6 µM.

Question: And the GI50 [55]?
Answer: The GI50 was 3.23 µM.

Question: And the TGI [55]?
Answer: The TGI was 14.2 µM.

Question: What about the GI50 [56] of the same molecule?
Answer: Its GI50 is 15.2 µM.

Question: And the TGI [56]?
Answer: The TGI was 31.5 µM.

Question: And the GI50 [57]?
Answer: The GI50 was 10.1 µM.

Question: And the TGI [57]?
Answer: The TGI was 21.8 µM.

Question: And the GI50 [58]?
Answer: Its GI50 is 10.6 µM.

Question: And the TGI [58]?
Answer: The TGI was 22.7 µM.
